{"source": "paper PMC11096365", "about": "“Cryo-EM structures of the human Elongator complex at work” (Nature Communications, 2024)", "biological_target": "T1, human ELP123 (Homo sapiens, UniProt Q9H9T3)", "T1 construct": "gene ELP3; recombinant ELP123 subcomplex (1:1:1, two lobes), codon-optimized ORFs, C-terminal Twin-Strep-Tag on ELP3, insect cells (SuperSf9-3); ELP1 148 kDa, ELP2 93 kDa, ELP3-TST 65 kDa; with Elongator complex protein 1; Elongator complex protein 2", "T1 sequence (Q9H9T3 1-547)": "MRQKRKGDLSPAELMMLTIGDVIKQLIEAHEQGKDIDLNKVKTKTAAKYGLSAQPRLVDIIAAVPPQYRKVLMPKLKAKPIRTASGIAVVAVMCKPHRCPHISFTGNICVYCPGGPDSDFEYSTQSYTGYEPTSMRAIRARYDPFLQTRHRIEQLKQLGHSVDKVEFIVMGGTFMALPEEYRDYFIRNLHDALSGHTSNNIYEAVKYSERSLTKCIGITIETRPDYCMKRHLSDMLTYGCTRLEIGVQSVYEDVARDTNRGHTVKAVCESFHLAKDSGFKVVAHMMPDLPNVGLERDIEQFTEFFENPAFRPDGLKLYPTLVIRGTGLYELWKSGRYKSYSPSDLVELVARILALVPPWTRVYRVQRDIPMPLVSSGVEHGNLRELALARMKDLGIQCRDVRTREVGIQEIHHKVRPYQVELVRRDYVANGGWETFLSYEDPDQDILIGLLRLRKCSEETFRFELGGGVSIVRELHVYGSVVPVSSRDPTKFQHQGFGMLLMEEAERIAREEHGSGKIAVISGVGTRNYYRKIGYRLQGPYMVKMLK", "T1 sequence (O95163 1-1332 partner)": "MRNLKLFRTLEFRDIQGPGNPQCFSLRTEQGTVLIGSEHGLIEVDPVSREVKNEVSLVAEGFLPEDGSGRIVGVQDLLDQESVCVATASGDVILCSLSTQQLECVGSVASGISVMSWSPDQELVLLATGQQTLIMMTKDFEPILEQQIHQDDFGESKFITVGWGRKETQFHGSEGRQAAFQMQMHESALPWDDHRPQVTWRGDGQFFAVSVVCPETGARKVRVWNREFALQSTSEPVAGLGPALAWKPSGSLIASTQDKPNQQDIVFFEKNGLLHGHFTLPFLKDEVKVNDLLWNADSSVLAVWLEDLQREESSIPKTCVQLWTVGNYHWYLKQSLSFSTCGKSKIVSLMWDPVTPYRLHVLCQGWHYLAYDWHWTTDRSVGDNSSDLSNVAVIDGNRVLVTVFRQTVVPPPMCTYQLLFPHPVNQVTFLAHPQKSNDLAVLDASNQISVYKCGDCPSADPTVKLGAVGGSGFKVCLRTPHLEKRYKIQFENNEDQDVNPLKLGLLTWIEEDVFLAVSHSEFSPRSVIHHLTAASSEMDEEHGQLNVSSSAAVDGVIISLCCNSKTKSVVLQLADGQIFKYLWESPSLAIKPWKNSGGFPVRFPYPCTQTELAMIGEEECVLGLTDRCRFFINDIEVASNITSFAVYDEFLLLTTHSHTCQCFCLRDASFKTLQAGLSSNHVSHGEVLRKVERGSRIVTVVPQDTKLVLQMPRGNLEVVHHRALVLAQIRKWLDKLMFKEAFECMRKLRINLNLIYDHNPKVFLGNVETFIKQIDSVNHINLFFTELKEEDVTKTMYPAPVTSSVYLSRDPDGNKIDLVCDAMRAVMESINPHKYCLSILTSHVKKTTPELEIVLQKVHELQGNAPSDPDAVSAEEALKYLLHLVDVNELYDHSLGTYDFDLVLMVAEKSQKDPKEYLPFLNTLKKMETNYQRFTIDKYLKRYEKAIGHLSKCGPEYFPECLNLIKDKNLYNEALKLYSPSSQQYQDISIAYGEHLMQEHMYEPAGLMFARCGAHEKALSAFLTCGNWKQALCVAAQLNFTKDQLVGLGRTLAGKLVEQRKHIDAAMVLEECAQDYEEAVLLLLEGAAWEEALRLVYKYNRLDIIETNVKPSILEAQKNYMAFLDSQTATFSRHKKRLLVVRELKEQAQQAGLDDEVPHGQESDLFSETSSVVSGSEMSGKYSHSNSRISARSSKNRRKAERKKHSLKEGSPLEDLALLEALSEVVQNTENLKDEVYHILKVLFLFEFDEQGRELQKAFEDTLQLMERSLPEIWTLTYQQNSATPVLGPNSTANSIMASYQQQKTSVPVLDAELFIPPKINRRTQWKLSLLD", "T1 sequence (Q6IA86 1-826 partner)": "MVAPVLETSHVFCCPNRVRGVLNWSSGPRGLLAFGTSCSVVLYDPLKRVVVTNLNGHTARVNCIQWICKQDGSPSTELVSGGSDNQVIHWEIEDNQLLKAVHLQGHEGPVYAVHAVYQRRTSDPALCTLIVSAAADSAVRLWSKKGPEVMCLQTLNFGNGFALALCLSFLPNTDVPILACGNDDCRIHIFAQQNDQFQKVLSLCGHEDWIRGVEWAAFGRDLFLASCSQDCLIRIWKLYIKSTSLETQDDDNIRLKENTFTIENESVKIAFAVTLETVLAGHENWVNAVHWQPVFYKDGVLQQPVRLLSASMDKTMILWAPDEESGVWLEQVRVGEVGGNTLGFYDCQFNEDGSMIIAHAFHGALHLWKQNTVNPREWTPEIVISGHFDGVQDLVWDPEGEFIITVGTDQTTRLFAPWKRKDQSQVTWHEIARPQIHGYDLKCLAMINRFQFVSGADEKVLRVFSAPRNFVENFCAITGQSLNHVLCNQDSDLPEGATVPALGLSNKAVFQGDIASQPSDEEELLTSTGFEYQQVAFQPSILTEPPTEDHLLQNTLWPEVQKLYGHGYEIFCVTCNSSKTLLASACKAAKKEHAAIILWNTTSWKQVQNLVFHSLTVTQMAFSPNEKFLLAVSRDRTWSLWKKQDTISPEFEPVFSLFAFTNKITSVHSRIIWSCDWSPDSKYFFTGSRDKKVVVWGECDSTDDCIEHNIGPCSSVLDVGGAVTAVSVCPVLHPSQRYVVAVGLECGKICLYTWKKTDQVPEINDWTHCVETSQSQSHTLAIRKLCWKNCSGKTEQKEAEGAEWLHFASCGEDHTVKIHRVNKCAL", "assay": "cryo-EM structure ([…] Å)", "assay_type": "binding", "conditions": "with tRNA-GlnUUG and SAM; KAT domain of ELP3; pH 7.5; hydrolysis induced by tRNA", "data": [{"molecule": "CC(=O)SCCNC(=O)CCNC(=O)[C@H](O)C(C)(C)COP(=O)(O)OP(=O)(O)OC[C@H]1O[C@@H](n2cnc3c(N)ncnc32)[C@H](O)[C@@H]1OP(=O)(O)O", "note": "[acetyl-CoA]", "values": [{"measurement": "cryo-EM structure (2.87 Å)", "result": "well-resolved ligand density that unambiguously fits a complete acetyl-CoA molecule"}]}]}
